Where two headings read alike, the source gives them in different places.

One may read the Kd as the concentration at which binding is half-saturated.

Assay [1] concerns VLA-4 positive B16F10 melanoma cells. The settings on record: previously reported; cited from earlier work.
For assay [2], the system named is mice with CFA-induced inflammation. It counts as in vivo, mouse. The note with it: ICR mice, CFA in right paw, 200 μCi iv, n=3.

Take CB-TE1A1P-PEG4-LLP2A [^64Cu-LLP2A]: in assay [1], the Kd was 0.28 nM. In addition, the Inflamed paw/muscle ratio in assay [2] (PET/CT 2 h post-injection) is 7.5 ± 3.7; in assay [2] (PET/CT 6 h post-injection) it was 16.7 ± 1.

Values taken from PMC5520654 (Journal of immunology (Baltimore, Md. : 1950), 2017).
